Source: US12686846B2, “Plant sweet and yeast MSF transporter capable of transporting different sugars simultaneously” (THE BOARD OF TRUSTEES OF THE UNIVERSITY OF ILLINOIS, priority 2020, dated 2026)
Entries after “also recorded” stand apart in the source; their conditions may differ.

Assays:
Type in all cases: cell-based
[1] = target: T1, Lipomyces starkeyi LST1_205437 transporter, wild type, SEQ ID NO: 4 (Lipomyces starkeyi, UniProt A0A1E3QE37); test: Inhibition of xylose uptake by glucose, SR8D8 expressing LST1_205437; details: 25 mM or 100 mM glucose; in words
T1 construct: whole-cell 14C sugar uptake
T1 sequence (A0A1E3QE37 1-603): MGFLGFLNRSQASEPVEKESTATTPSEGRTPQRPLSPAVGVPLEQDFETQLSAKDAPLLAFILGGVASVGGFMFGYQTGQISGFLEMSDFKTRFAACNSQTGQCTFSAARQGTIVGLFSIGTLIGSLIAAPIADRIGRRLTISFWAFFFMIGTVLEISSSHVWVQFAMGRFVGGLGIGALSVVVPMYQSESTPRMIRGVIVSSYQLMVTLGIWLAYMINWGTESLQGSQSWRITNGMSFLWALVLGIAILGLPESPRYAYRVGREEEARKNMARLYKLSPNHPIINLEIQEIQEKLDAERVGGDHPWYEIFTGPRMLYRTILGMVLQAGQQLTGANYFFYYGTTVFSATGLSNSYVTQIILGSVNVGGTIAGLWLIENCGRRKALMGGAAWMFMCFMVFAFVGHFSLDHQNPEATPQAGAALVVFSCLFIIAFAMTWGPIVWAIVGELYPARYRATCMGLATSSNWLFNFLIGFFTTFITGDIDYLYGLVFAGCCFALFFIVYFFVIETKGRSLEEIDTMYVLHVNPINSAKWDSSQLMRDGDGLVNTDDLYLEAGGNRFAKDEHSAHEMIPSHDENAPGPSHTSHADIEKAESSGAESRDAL
Experimental: (§1) Symbols: glucose (square), xylose (triangle up), DCW (circle), ethanol (triangle down), glycerol (diamond). […] Global curve fitting for Michaelis-Menten kinetics with competitive inhibition was applied to data of three independent measurements at each concentration.
(§2) SR8D8 containing the respective plasmid was grown on selective YPE medium to an OD600 of 1-1.5, harvested by centrifugation, and washed twice in ice-cold uptake buffer (100 mM potassium phosphate, pH 6.5). C14 labeled sugar uptake assay was done according to Boles and Oreb. Radioactivity was analyzed in a Beckman-Coulter LS6500 multi-purpose liquid scintillation counter (Beckman-Coulter, CA, USA).
(§3) Sugar solutions contained 0.135-0.608 μCi of D-[U-^14C]-glucose (290-300 mCi/mmol) or D-[1-^14C]-xylose (55 mCi/mmol) (PerkinElmer, MA, USA). Calculation of Km (Michaelis constant), Vmax (maximal initial uptake velocity), and K (inhibitor constant for competitive inhibition) was done by nonlinear regression analysis and global curve fitting in Prism 7 (GraphPad Software) with values of three independent measurements.

[2] = target: T2, Arabidopsis thaliana AtSWEET1 transporter, wild type, SEQ ID NO: 1 (Arabidopsis thaliana, UniProt Q8L9J7); test: C14 labeled sugar uptake assay, SR8D8 expressing AtSWEET1; details: in words; FIGS. 7B and 7D legend: FIG. 7G
T2 construct: whole-cell 14C sugar uptake
T2 sequence (Q8L9J7 1-247): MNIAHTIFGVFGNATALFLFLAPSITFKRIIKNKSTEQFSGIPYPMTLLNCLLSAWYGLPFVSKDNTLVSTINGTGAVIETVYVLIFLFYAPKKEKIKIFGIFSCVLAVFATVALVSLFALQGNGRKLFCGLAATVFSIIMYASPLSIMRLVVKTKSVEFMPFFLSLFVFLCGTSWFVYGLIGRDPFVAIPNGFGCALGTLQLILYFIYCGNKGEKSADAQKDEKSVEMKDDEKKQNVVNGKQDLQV
Experimental: FIG. 7A illustrates sugar uptake kinetics by SR8D8. FIG. 7B illustrates sugar uptake kinetics by SR8D8 expressing AtSWEET1. FIG. 7C illustrates sugar uptake kinetics by SR8D8 expressing ScGal2. FIG. 7D illustrates sugar uptake kinetics by SR8D8 expressing AtSWEET7. FIG. 7E illustrates sugar uptake kinetics by SR8D8 expressing LST1_205437. Initial xylose uptake (20 s) was measured at 30° C. over a concentration range of 1 to 500 mM xylose. FIG. 7F illustrates sugar uptake kinetics by SR8D8. FIG. 7G illustrates sugar uptake kinetics by SR8D8 expressing AtSWEET1. FIG. 7H illustrates sugar uptake kinetics by SR8D8 expressing ScGal2. FIG. 7I illustrates sugar uptake kinetics by SR8D8 expressing AtSWEET7. FIG. 7J illustrates sugar uptake kinetics by SR8D8 expressing LST1_205437. Initial glucose uptake (5 s) was measured at 30° C. over a concentration range of 0.2 to 100 mM glucose. […]
A xylose fermenting S. cerevisiae yeast (SR8) with HXT1-7Δ, GAL2Δ deletions was used for transporter screening and characterization (SR8D8). […] Biomass was calculated from the OD600 measured using a Biomate 5 UV-visible spectrophotometer (Fisher, NY, USA). All growth rates were measured using a Bioscreen C plate reader system (Growth Curves USA, Piscataway, NJ, USA). […]
Uptake was measured at sugar concentrations 0.2, 1, 5, 25, and 100 mM for glucose and 1, 5, 25, 66, 100, 200, and 500 mM for xylose. […]

[3] = target: T3, Arabidopsis thaliana AtSWEET7 transporter, wild type (Table 2: SEQ ID NO: 3; FIG. 12: SEQ ID NO:2) (Arabidopsis thaliana, UniProt Q8LBF7); test: Inhibition of xylose uptake by glucose, SR8D8 expressing AtSWEET7; details: 25 mM and 100 mM glucose; in words
T3 construct: expressed in transfected cells; host or cells: S. cerevisiae SR8D8 (SR8 with HXT1-7 and GAL2 deleted), plasmid p42K-GPD1p-CYC1t
T3 sequence (Q8LBF7 1-258): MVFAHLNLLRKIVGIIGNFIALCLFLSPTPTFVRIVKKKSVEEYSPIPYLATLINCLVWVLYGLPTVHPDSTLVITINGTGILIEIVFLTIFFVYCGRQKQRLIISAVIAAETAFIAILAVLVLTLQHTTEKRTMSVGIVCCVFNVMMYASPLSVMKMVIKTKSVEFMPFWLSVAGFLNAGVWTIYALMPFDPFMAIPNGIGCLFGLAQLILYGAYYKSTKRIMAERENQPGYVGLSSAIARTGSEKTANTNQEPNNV
Experimental: as §1, §2, §3

Compound: OC[C@H]1OC(O)[C@H](O)[C@@H](O)[C@@H]1O (stereo partly drawn) [Glucose]
- inhibition of xylose transport by glucose [1]: less inhibited by glucose than those by ScGal2; also recorded: glucose concentration dependent inhibition of xylose transport
- glucose transport kinetics [2]: transports glucose more efficiently as compared to AtSWEET7
- inhibition of xylose transport by glucose [3]: no inhibition of xylose transport by glucose; also recorded: do not have any xylose transport inhibition
